Test results reported in publication PMC6272684, “Synthesis, Antiproliferative and Antifungal Activities of 1,2,3-Triazole-Substituted Carnosic Acid and Carnosol Derivatives” (Molecules, 2015).
Read-outs that look alike come from different tables or passages of the source.

Columns and labels:
[1] = tested on: bladder carcinoma (J82) cells; test: Antiproliferative assay (MTT reduction, 3 days); format: cell-based, human; settings: read-out: IC50 ± SD, J82
Procedure: (§1) The antiproliferative activity towards the following human cell lines was determined: normal lung fibroblasts (MRC-5), gastric epithelial adenocarcinoma (AGS), lung cancer (SK-MES-1) and bladder carcinoma (J82) cells. […] When comparing the pairs 3–4, 5–6 and 7–8 differing in one CH2 unit in the linker, the activity decreased with linker length.
(§2) All human cell lines used in this work were purchased from the American Type Culture Collection (ATCC, Manasas, VA, USA). Normal lung MRC-5 fibroblasts (CCL-171), SK-MES-1 lung cancer cells (HTB-58) and J82 bladder carcinoma cells (HTB-1) were grown as monolayers in minimum essential Eagle medium (MEM) with Earles’s salts, 2 mM L-glutamine and 1.5 g∙L^−1 sodium bicarbonate. Gastric adenocarcinoma AGS cells (CRL-1739) were grown as monolayers in Ham F-12 medium containing 1 mM L-glutamine and 1.5 g∙L^−1 sodium bicarbonate. All media were supplemented with 10% heat-inactivated FBS, 100 IU∙mL^−1 penicillin and 100 µg∙mL^−1 streptomycin. Cells were grown in a humidified incubator with 5% CO2 in air at 37 °C. For the antiproliferative assay, cells were plated at a density of 5 × 10^4 cells∙mL^−1. Cells were seeded in 96-well plates (100 µL∙well^−1). One day after seeding, cells were treated with medium containing the compounds at concentrations ranging from 0 up to 100 µM during 3 days. The compounds were dissolved in DMSO (1% final concentration) and complete medium. Untreated cells (medium containing 1% DMSO) were used as 100% viability controls. […] Each concentration was tested in sextuplicate and experiments were repeated 2 times. Cell viability was determined by means of the MTT reduction assay at the end of the incubation with the products. The results were transformed to percentage of controls and the IC50 value was obtained adjusting the dose-response curve to a sigmoidal model. The software used was OriginPro 8.1 [30].

[2] = tested on: gastric epithelial adenocarcinoma (AGS) cells; test: Antiproliferative assay (MTT reduction, 3 days); format: cell-based, human; settings: >100 µM considered inactive; for IC50: read-out: IC50 ± SD, AGS
Procedure: as §1, §2

C. neoformans ATCC 32264 = test: Antifungal broth microdilution (CLSI M27-A3), growth inhibition; format: cell-based, Cryptococcus neoformans; settings: for MIC50 (minimum concentration to inhibit 50% of fungal growth), C. neoformans: C. neoformans ATCC 32264
Summary of the method: (§3)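 Yeast inocula (1–5 × 10^3 CFU/mL) were tested by CLSI M27-A3 broth microdilution in RPMI-1640 at 250–3.9 μg∙mL^−1 (DMSO ≤1%) for 48 h at 30 °C in the dark. Growth was read at OD405, and % inhibition was calculated against growth and sterility controls in triplicate. MIC100 is total inhibition; MIC50 is 50% inhibition.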

[3] = tested on: normal lung fibroblasts (MRC-5); test: Antiproliferative assay (MTT reduction, 3 days); format: cell-based, human; settings: MRC-5 normal fibroblasts, >100 µM considered inactive; for IC50: read-out: IC50 ± SD, MRC-5
Procedure: (§4) The antiproliferative activity towards the following human cell lines was determined: normal lung fibroblasts (MRC-5), gastric epithelial adenocarcinoma (AGS), lung cancer (SK-MES-1) and bladder carcinoma (J82) cells.
as §2, with “Normal lung MRC-5 fibroblasts (CCL-171), SK-MES-1 lung cancer cells (HTB-58) and J82 bladder carcinoma cells (HTB-1) were grown as monolayers in minimum essential Eagle medium (MEM) with Earles’s salts, 2 mM L-glutamine and 1.5 g∙L^−1 sodium bicarbonate. Gastric adenocarcinoma AGS cells (CRL-1739) were grown as monolayers in Ham F-12 medium containing 1 mM L-glutamine and 1.5 g∙L^−1 sodium bicarbonate.” left out, “The results were transformed to percentage of controls and the IC50 value was obtained adjusting the dose-response curve to a sigmoidal model.” left out

[4] = tested on: lung cancer (SK-MES-1) cells; test: Antiproliferative assay (MTT reduction, 3 days); format: cell-based, human; settings: >100 µM considered inactive, read-out: IC50 ± SD, SK-MES-1
Procedure: as §4
as §2, with “Normal lung MRC-5 fibroblasts (CCL-171), SK-MES-1 lung cancer cells (HTB-58) and J82 bladder carcinoma cells (HTB-1) were grown as monolayers in minimum essential Eagle medium (MEM) with Earles’s salts, 2 mM L-glutamine and 1.5 g∙L^−1 sodium bicarbonate. Gastric adenocarcinoma AGS cells (CRL-1739) were grown as monolayers in Ham F-12 medium containing 1 mM L-glutamine and 1.5 g∙L^−1 sodium bicarbonate.” left out, “The results were transformed to percentage of controls and the IC50 value was obtained adjusting the dose-response curve to a sigmoidal model.” left out

C. albicans ATCC 10231 = test: Antifungal broth microdilution (CLSI M27-A3), growth inhibition; format: cell-based, Candida albicans; settings: for MIC50 (minimum concentration to inhibit 50% of fungal growth), C. albicans: C. albicans ATCC 10231
Summary of the method: as §3

[5] = J82 cells, 3 days, MTT, >100 µM considered inactive

| Structure (SMILES) | IC50 [1, 5] | IC50 [2] | Inhibition percentage against C. neoformans ATCC 32264 (C. neoformans ATCC 32264; 3.9 μg∙mL^−1, 48 h) | Inhibition percentage against C. neoformans ATCC 32264 (C. neoformans ATCC 32264; 7.8 μg∙mL^−1, 48 h) | Inhibition percentage against C. neoformans ATCC 32264 (C. neoformans ATCC 32264; 15.6 μg∙mL^−1, 48 h) | Inhibition percentage against C. neoformans ATCC 32264 (C. neoformans ATCC 32264; 31.2 μg∙mL^−1, 48 h) | Inhibition percentage against C. neoformans ATCC 32264 (C. neoformans ATCC 32264; 62.5 μg∙mL^−1, 48 h) | Inhibition percentage against C. neoformans ATCC 32264 (C. neoformans ATCC 32264; 125 μg∙mL^−1, 48 h) | Inhibition percentage against C. neoformans ATCC 32264 (C. neoformans ATCC 32264; 250 μg∙mL^−1, 48 h) | MIC50 (minimum concentration to inhibit 50% of fungal growth), C. neoformans (C. neoformans ATCC 32264) | IC50 [3] | IC50 [4] | Inhibition percentage against C. albicans ATCC 10231 (C. albicans ATCC 10231; 3.9 μg∙mL^−1, 48 h) | Inhibition percentage against C. albicans ATCC 10231 (C. albicans ATCC 10231; 7.8 μg∙mL^−1, 48 h) | Inhibition percentage against C. albicans ATCC 10231 (C. albicans ATCC 10231; 15.6 μg∙mL^−1, 48 h) | Inhibition percentage against C. albicans ATCC 10231 (C. albicans ATCC 10231; 62.5 μg∙mL^−1, 48 h) | Inhibition percentage against C. albicans ATCC 10231 (C. albicans ATCC 10231; 125 μg∙mL^−1, 48 h) | Inhibition percentage against C. albicans ATCC 10231 (C. albicans ATCC 10231; 250 μg∙mL^−1, 48 h) | Inhibition percentage against C. albicans ATCC 10231 (C. albicans ATCC 10231; 31. μg∙mL^−1, 48 h) | MIC50 (minimum concentration to inhibit 50% of fungal growth), C. albicans (C. albicans ATCC 10231) | further results |
| --- | --- | --- | --- | --- | --- | --- | --- | --- | --- | --- | --- | --- | --- | --- | --- | --- | --- | --- | --- | --- | --- |
| CC(C)c1cc2c3c(c1OC(=O)CCCc1cn(Cc4ccccc4)nn1)OC(=O)C31CCCC(C)(C)C1CC2 (stereo not drawn) [Compound 4, 12-O-(4-(1-benzyl-1H-1,2,3-triazol-4-yl)-butanoyloxy)-11,20-epoxyabieta-8,11,13-trien-20-one] | > 100 µM | > 100 µM | 0.0% | 0.0% | 2.3 ± 1.0% | 8.5 ± 1.0% | 9.8 ± 1.1% | 17.8 ± 1.4% | 53.4 ± 2.1% | 250 µg/mL | > 100 µM | > 100 µM | 3.7 ± 0.4% | 4.1 ± 1.7% | 9.5 ± 1.3% | 16.4 ± 2.3% | 28.2 ± 2.1% | 51.6 ± 0.1% | 10.2 ± 1.2% | 250 µg/mL | IC50 ± SD, AGS [2]: inactive; IC50 ± SD, MRC-5 [3]: inactive |
| CC(C)c1cc2c3c(c1OC(=O)CCCc1cn(Cc4ccc(Br)cc4)nn1)OC(=O)[C@@]31CCCC(C)(C)[C@@H]1CC2 [Compound 6, 12-O-(4-(1-(4-bromobenzyl)-1H-1,2,3-triazol-4-yl)-butanoyloxy)-11,20-epoxyabieta-8,11,13-trien-20-one] | > 100 µM | > 100 µM | 0.0% | 0.0% | 0.0% | 5.4 ± 0.7% | 12.7 ± 0.8% | 22.4 ± 1.5% | 41.4 ± 2.7% | >250 µg/mL | > 100 µM | > 100 µM | 0.0% | 1.4 ± 0.4% | 1.5 ± 0.1% | 13.2 ± 1.4% | 19.9 ± 0.5% | 45.4 ± 3.4% | 4.2 ± 0.9% | >250 µg/mL |  |
| CC(C)c1cc2c3c(c1OC(=O)CCc1cn(Cc4ccc(Br)cc4)nn1)OC(=O)[C@@]31CCCC(C)(C)[C@@H]1CC2 [Compound 5, 12-O-(3-(1-(4-bromobenzyl)-1H-1,2,3-triazol-4-yl)-propanoyloxy)-11,20-epoxyabieta-8,11,13-trien-20-one] | > 100 µM | > 100 µM | 2.3 ± 0.9% | 6.0 ± 0.7% | 7.7 ± 0.6% | 8.7 ± 1.4% | 12.0 ± 1.0% | 12.6 ± 0.5% | 36.9 ± 2.2% | >250 µg/mL | 82.6 ± 6.6 µM | > 100 µM | 0.0% | 0.0% | 0.0% | 4.1 ± 1.7% | 8.3 ± 3.3% | 16.5 ± 1.3% | 3.0 ± 2.7% | >250 µg/mL |  |
| CC(C)c1cc2c3c(c1OC(=O)CCc1cn(Cc4ccc([N+](=O)[O-])cc4)nn1)OC(=O)C31CCCC(C)(C)C1CC2 (stereo not drawn) [Compound 7, 12-O-(3-(1-(4-nitrobenzyl)-1H-1,2,3-triazol-4-yl)-propanoyloxy)-11,20-epoxyabieta-8,11,13-trien-20-one] | > 100 µM | 64.3 ± 4.5 µM | 0.0% | 0.0% | 0.0% | 0.0% | 0.0% | 20.0 ± 1.1% | 28.2 ± 2.7% | >250 µg/mL | 60.6 ± 3.6 µM | > 100 µM | 0.0% | 0.9 ± 0.2% | 2.1 ± 0.1% | 2.5 ± 0.5% | 10.5 ± 3.0% | 15.5 ± 1.1% | 2.2 ± 0.7% | >250 µg/mL |  |
| COC(=O)C12CCCC(C)(C)C1CCc1cc(C(C)C)c(OC(=O)CCc3cn(Cc4ccccc4)nn3)c(OC(=O)CCc3cn(Cc4ccccc4)nn3)c12 (stereo not drawn) [Compound 11, Methyl(11,12-O-(3-(1-benzyl-1H-1,2,3-triazol-4-yl)-propanoyloxy)-abieta-8,11,13-triene)-20-oate] |  | 89.4 µM | 0.0% | 2.7 ± 0.9% | 13.3 ± 2.0% | 14.2 ± 1.3% | 19.4 ± 2.1% | 38.3 ± 2.9% | 57.2 ± 2.4% | 250 µg/mL |  |  | 1.8 ± 0.1% | 1.9 ± 0.5% | 3.5 ± 0.7% | 11.8 ± 0.3% | 23.3 ± 2.1% | 45.7 ± 3.0% | 5.5 ± 1.7% | >250 µg/mL | Antifungal activity against C. albicans (in words) (C. albicans ATCC 10231; at the assayed concentrations (250–3.9 μg∙mL^−1)): weak effect |
| COc1cc([C@@H]2c3cc4c(cc3[C@@H](O[C@@H]3O[C@@H]5CO[C@@H](C)O[C@H]5[C@H](O)[C@H]3O)[C@H]3COC(=O)[C@H]23)OCO4)cc(OC)c1O [Etoposide, reference compound] |  |  |  |  |  |  |  |  |  |  |  |  |  |  |  |  |  |  |  |  | IC50 ([1]; Homo sapiens, J82, 72 h): 3.49 ± 0.16 µM; IC50 ([2]; Homo sapiens, 72 h): 0.58 ± 0.02 µM |
